Columns and labels:
[1] = 20° C.; cited from earlier work
[2] = insulin from bovine pancreas (Sigma-Aldrich); cited from earlier work
diabetic rats [3] = assay: Freeze-dried nanoparticles in enteric-coated capsule in diabetic rats (Example no. 19); type: in vivo; conditions: SC injection 5 U/kg
Experimental: In the in vivo study, rats as prepared and conditioned according to Example no. 10 were used in this evaluation. […] The blood glucose concentration from rat's tail was measured over time.
As anticipated, the glucose decrease for the SC insulin injection method is evident in rat blood at a very early time interval starts to taper off after 2 hours, and ends at about 6 hours in this exemplary study. The most important observation of the study comes from the oral administration route with insulin-loaded lyophilized (namely, freeze-dried) nanoparticles. Nanoparticles of this example have an insulin LC at 4.4%, whereas nanoparticles from Example no. […] With the same amount of nanoparticles in both examples, the insulin-feeding ratio of Example no. 19 to Example no. 10 is about 1:3. In other words, the insulin fed to a rat in this study from nanoparticles is about ⅓ of the insulin from nanoparticles fed to rats in Example no. 10.
The blood glucose begins to decrease from the base line at about 3 hours after administration and sustains a lower glucose level for more than 10 hours into study. It implies that the current insulin-loaded nanoparticles may modulate the glucose level in animals in a sustained or prolonged effective mode. […]

diabetic rats [4] = assay: Hypoglycemic effect in diabetic rats (Example no. 10); type: in vivo, Wistar male rats
Experimental: In the in vivo study, rats were injected with streptozotocin (STZ 75 mg/kg intraperitoneal) in 0.01M citrate buffer (pH 4.3) to induce diabetes. The blood from the rat's tail was analyzed with a commercially available glucometer for blood glucose. The blood glucose level on Wistar male rats at no fasting (n=5) was measured at 107.2±8.1 mg/dL for normal rats while the blood glucose level was at 469.7±34.2 mg/dL for diabetic rats. In the animal study, diabetic rats were fasting for 12 hours and subjected to four different conditions: (a) oral deionized water (DI) administration; (b) oral insulin administration at 30 U/kg; (c) oral insulin-loaded nanoparticles administration at 30 U/kg; and (d) subcutaneous (SC) insulin injection at 5 U/kg as positive control. The blood glucose concentration from rat's tail was measured over the time in the study.
It is illustrative that substantially all insulin from the oral administration route has been decomposed in rat stomach. As anticipated, the glucose decrease for the SC insulin injection route appears in rat blood in the very early time interval and starts to taper off after 3 hours in this exemplary study.
The most important observation of the study comes from the oral administration route with insulin-loaded nanoparticles. […]

[5] = cited from earlier work
[6] = system: brush border membrane bounded enzymes; assay: Enzyme inhibition study: enzymatic degradation of insulin versus time; type: biochemical; conditions: 5 mg/ml; insulin 1 mg/ml; up to 2 hours
Description: Brush border membrane bounded enzymes were used to simulate a contacting membrane at the bottom of a donor compartment, wherein the insulin-loaded medium (Krebs-Ringer buffer) in the donor compartment was used as the starting material at time zero. Three elements were used in this enzyme inhibition study to assess the enzymatic degradation of insulin versus time by brush border membrane bounded enzymes.

[7] = in vivo; cited from earlier work

## OC[C@H]1O[C@H](O[C@H]2O[C@H](CO)[C@@H](O)[C@H](O)[C@H]2O)[C@H](O)[C@@H](O)[C@@H]1O [Trehalose, α-D-glucopyranosyl-(1→1)-α-D-glucopyranoside]
[1]
  solubility: 68.9 g/100 g H2O

## insulin: model insulin from bovine pancreas (Sigma-Aldrich), given orally or by SC injection as controls
[2]
  activity: ≥ 27 USP units/mg
Diabetic rats [3]
  time after which glucose decrease starts to taper off: 2 h
  time at which glucose decrease ends: about 6 hours
Diabetic rats [4]; SC injection 5 U/kg
  time after which glucose decrease starts to taper off: 3 h
Diabetic rats [4]; oral 30 U/kg, over 8 hours, n=5
  glucose change as a percentage of base lines: relatively constant

## Drotrecogin alfa (activated)
[5]; i.v. dosage guidelines
  time to peak plasma levels: two
[5]; i.v. infusion
  time to complete clearance from plasma after termination of infusion: two

## O=C(O)CN(CCN(CC(=O)O)CC(=O)O)CCN(CC(=O)O)CC(=O)O [DTPA, Diethylene triamine pentaacetic acid]
[6]
  protection of insulin activity or viable content against enzymatic degradation: substantially protect or maintain the insulin activity or viable content

## 21^A-Gly-30^Ba-L-Arg-30^Bb-L-Arg-human insulin [Insulin glargine]
[7]
  duration of activity: up to 24 hours
